# Data as given in PMC6935304 (International Journal of Nanomedicine, 2019).
# Like-named read-outs stand apart in the source and are kept apart here.
# What was measured:
# [1] = In vitro drug release by dialysis against PBS, HPLC; type: physicochemical; settings: room temperature
# plasma proteins [2] = settings: dog; cited from earlier work
# plasma proteins [3] = settings: human; cited from earlier work
# CSE = assay: Immunoblot of CSE expression in hearts of heart failure rats; type: in vivo; settings: rat heart, 6 weeks after myocardial infarction
# plasma proteins [4] = settings: rat; cited from earlier work
substance,measurement,setting,value
S-propargyl-cysteine [ZYZ-802],Time to release from the dialysis tubing,[1],≤ 30 min
same,Binding rate to plasma proteins,plasma proteins [2],very low
same,Binding rate to plasma proteins,plasma proteins [3],very low
same,CSE expression relative to HF group or DP-LP group,CSE,1.6 times
same,Binding rate to plasma proteins,plasma proteins [4],very low
